From ChEMBL document CHEMBL3596187, “Design and synthesis of membrane-targeting antibiotics: from peptides- to aminosugar-based antimicrobial cationic amphiphiles” (2014)
Converted amounts (≈) assume the structure as drawn. Blank lines part the entries; values can stand above or below the compound they belong to.

Tests used:
Format in all cases: functional
[1] = test system: Porphyromonas cangingivalis; experiment: Antimicrobial activity against protease-positive Porphyromonas cangingivalis by agar dilution method
Streptococcus mutans = experiment: Antimicrobial activity against Streptococcus mutans by agar dilution method
[2] = test system: Porphyromonas circumdentaria; experiment: Antimicrobial activity against protease-positive Porphyromonas circumdentaria by agar dilution method
Porphyromonas gingivalis = experiment: Antimicrobial activity against protease-positive Porphyromonas gingivalis by agar dilution method
Staphylococcus = experiment: Antimicrobial activity against Staphylococci
Klebsiella pneumoniae = experiment: Antimicrobial activity against Klebsiella pneumoniae after 18 to 24 hrs by geometric microdilution method
Acinetobacter lwoffii = experiment: Antimicrobial activity against Acinetobacter lwoffii after 18 to 24 hrs by geometric microdilution method
Pseudomonas aeruginosa = experiment: Antimicrobial activity against Pseudomonas aeruginosa after 18 to 24 hrs by geometric microdilution method
Escherichia coli = experiment: Antimicrobial activity against Escherichia coli after 18 to 24 hrs by geometric microdilution method

MIC [1]: 2 µg/mL (≈ 2.95 µM) | MIC (Streptococcus mutans): 1 µg/mL (≈ 1.48 µM) | MIC [2]: 1 µg/mL (≈ 1.48 µM) | MIC (Porphyromonas gingivalis): 2 µg/mL (≈ 2.95 µM)
Compound: CCCCCCCCNCCC[C@@H](C)[C@H]1CC[C@H]2[C@@H]3[C@H](OCCCN)C[C@@H]4C[C@H](OCCCN)CC[C@]4(C)[C@H]3C[C@H](OCCCN)[C@]12C

MIC (Staphylococcus): 0.095 µg/mL (≈ 0.143 µM)
Compound: CCN(CC)CCCCOc1cc2oc3cc(OCCCCN(CC)CC)c(OC)c(CC=C(C)C)c3c(=O)c2c(O)c1CC=C(C)C

MIC (Klebsiella pneumoniae): 2 µg/mL (≈ 2.69 µM) | MIC (Acinetobacter lwoffii): 2 µg/mL (≈ 2.69 µM) | MIC (Pseudomonas aeruginosa): 2 µg/mL (≈ 2.69 µM) | MIC (Escherichia coli): 2 µg/mL (≈ 2.69 µM)
Compound: NC[C@H]1O[C@H](O[C@H]2[C@H](O)[C@@H](OCc3ccc4ccccc4c3)[C@H](N)C[C@@H]2N)[C@H](N)[C@@H](OCc2ccc3ccccc3c2)[C@@H]1OCc1ccc2ccccc2c1
